# Assay results taken from article PMC9516332 (Frontiers in Oncology, 2022).
# Read-outs that look alike come from different tables or passages of the source.
# Key:
# Assay in all cases: Kinase panel profiling at 1 µmol/L (MSA or IMAP), percentage inhibition
# Format in all cases: biochemical
# [1] = molecular target: T1, panel of 255 wild-type kinases (Homo sapiens, UniProt P42681); settings: read-out: %-inhibition at 1 µmol/L, TXK
# T1 sequence (P42681 1-527): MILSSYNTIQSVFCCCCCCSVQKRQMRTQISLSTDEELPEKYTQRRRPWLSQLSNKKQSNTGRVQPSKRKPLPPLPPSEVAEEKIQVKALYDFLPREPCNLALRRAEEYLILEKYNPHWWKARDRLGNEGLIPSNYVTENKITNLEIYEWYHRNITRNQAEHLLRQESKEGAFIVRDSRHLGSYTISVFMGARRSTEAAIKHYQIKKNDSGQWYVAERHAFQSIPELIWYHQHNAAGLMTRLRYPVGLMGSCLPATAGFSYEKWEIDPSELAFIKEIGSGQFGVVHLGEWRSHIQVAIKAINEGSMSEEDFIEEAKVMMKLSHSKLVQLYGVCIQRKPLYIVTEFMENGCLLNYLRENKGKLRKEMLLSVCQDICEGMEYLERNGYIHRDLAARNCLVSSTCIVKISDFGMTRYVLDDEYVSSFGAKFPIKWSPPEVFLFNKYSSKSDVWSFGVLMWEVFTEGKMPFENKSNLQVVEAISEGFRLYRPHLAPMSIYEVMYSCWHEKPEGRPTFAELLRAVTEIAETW
# [2] = molecular target: panel of 255 wild-type kinases (Homo sapiens, UniProt P07947); settings: read-out: %-inhibition at 1 µmol/L, YES
# [3] = molecular target: T2, panel of 255 wild-type kinases (Homo sapiens, UniProt Q9NWZ3); settings: read-out: %-inhibition at 1 µmol/L, IRAK4
# T2 sequence (Q9NWZ3 1-460): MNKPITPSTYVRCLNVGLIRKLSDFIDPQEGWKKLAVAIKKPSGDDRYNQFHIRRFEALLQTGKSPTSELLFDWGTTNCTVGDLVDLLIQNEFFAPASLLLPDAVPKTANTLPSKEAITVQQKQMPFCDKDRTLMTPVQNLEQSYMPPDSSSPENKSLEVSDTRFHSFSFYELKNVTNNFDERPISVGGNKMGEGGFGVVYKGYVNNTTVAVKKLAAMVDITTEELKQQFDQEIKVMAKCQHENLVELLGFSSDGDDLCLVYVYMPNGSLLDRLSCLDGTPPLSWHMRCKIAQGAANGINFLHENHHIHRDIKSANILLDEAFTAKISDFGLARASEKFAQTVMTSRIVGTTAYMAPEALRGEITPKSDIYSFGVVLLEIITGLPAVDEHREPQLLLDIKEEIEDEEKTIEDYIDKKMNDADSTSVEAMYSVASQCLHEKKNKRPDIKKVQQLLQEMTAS
# [4] = molecular target: panel of 255 wild-type kinases (Homo sapiens, UniProt P49137); settings: read-out: %-inhibition at 1 µmol/L, MAPKAPK2
# [5] = molecular target: panel of 255 wild-type kinases (Homo sapiens, UniProt Q9H2G2); settings: read-out: %-inhibition at 1 µmol/L, SLK
# [6] = molecular target: panel of 255 wild-type kinases (Homo sapiens, UniProt P07332); settings: read-out: %-inhibition at 1 µmol/L, FES
# [7] = molecular target: panel of 255 wild-type kinases (Homo sapiens, UniProt O00311); settings: read-out: %-inhibition CDC7/ASK
# [8] = molecular target: panel of 255 wild-type kinases (Homo sapiens, UniProt P51451); settings: for inhibition at 1 µM: read-out: %-inhibition BLK
# [9] = molecular target: panel of 255 wild-type kinases (Homo sapiens, UniProt Q8IY84); settings: read-out: %-inhibition, NIM1K
# [10] = molecular target: panel of 255 wild-type kinases (Homo sapiens, UniProt Q16620); settings: read-out: %-inhibition at 1 µmol/L, TRKB
# [11] = molecular target: panel of 255 wild-type kinases (Homo sapiens, UniProt Q13554); settings: read-out: %-inhibition CaMK2β
# [12] = molecular target: panel of 255 wild-type kinases (Homo sapiens, UniProt P00533); settings: read-out: %-inhibition at 1 µmol/L, EGFR
# [13] = molecular target: panel of 255 wild-type kinases (Homo sapiens, UniProt P53350); settings: read-out: %-inhibition at 1 µmol/L, PLK1
# [14] = molecular target: T3, panel of 255 wild-type kinases (Homo sapiens, UniProt O14965)
# T3 sequence (O14965 1-403): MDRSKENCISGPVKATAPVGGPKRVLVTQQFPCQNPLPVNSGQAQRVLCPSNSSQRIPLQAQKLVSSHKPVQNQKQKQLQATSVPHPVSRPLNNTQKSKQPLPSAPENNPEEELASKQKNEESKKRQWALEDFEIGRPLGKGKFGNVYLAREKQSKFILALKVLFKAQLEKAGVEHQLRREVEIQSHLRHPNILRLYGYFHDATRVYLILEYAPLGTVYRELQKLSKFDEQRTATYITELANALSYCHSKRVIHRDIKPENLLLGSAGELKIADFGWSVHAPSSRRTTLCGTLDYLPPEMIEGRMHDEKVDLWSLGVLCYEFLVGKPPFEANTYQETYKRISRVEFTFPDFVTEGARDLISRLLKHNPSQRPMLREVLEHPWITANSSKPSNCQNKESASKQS
# [15] = molecular target: panel of 255 wild-type kinases (Homo sapiens, UniProt P07949); settings: read-out: %-inhibition at 1 µmol/L, RET
# [16] = kinase TXK, 1 µmol/L single concentration
# [17] = kinase YES, 1 µmol/L single concentration
# [18] = kinase IRAK4, 1 µmol/L single concentration
# [19] = kinase MAPKAPK2, 1 µmol/L single concentration
# [20] = kinase SLK, 1 µmol/L single concentration
# [21] = kinase FES, 1 µmol/L single concentration
# [22] = CDC7/ASK kinase assay, 1 µmol/L single concentration
# [23] = BLK kinase assay, 1 µmol/L single concentration
# [24] = NIM1K, 1 µmol/L single concentration
# [25] = kinase TRKB, 1 µmol/L single concentration
# [26] = CaMK2β kinase assay, 1 µmol/L single concentration
# [27] = kinase EGFR, 1 µmol/L single concentration
# [28] = kinase PLK1, 1 µmol/L single concentration
# [29] = AurA kinase assay, 1 µmol/L single concentration, read-out: %-inhibition AurA
# [30] = AurA/TPX2 kinase assay, 1 µmol/L single concentration, read-out: %-inhibition AurA/TPX2
# [31] = kinase RET, 1 µmol/L single concentration
Structure (SMILES),"inhibition at 1 µM [1, 16]","inhibition at 1 µM [2, 17]","inhibition at 1 µM [3, 18]","inhibition at 1 µM [4, 19]","inhibition at 1 µM [5, 20]","inhibition at 1 µM [6, 21]","inhibition at 1 µM [7, 22]","inhibition at 1 µM [8, 23]","inhibition at 1 µM [9, 24]","inhibition at 1 µM [10, 25]","inhibition at 1 µM [11, 26]","inhibition at 1 µM [12, 27]","inhibition at 1 µM [13, 28]","inhibition at 1 µM [14, 29]","inhibition at 1 µM [14, 30]","inhibition at 1 µM [15, 31]",further results
COC(=O)N[C@@H](C)CNc1nccc(-c2cn(C(C)C)nc2-c2cc(Cl)cc(NS(C)(=O)=O)c2F)n1 [encorafenib],-3.43%,3.55%,-1.14%,-11%,6%,7%,-4.28%,10%,-12%,7.42%,4.23%,9%,-2.56%,0.211%,-3.31%,-10%,–
C[C@H](Nc1ncnc2nc[nH]c12)c1cc2cccc(Cl)c2c(=O)n1-c1ccccc1 [duvelisib],-0.177%,-2.44%,1.13%,-16%,7.44%,-0.806%,0.486%,-12%,-3.41%,-0.401%,-7.37%,6%,0.784%,-4.54%,1.81%,8%,–
CCN1CCN(c2ccc(Nc3cc(N(C)C(=O)Nc4c(Cl)c(OC)cc(OC)c4Cl)ncn3)cc2)CC1 [infigratinib],4.32%,77%,-1.22%,-32%,16%,20%,-2%,21%,-2.7%,6%,–,–,0.613%,-5.38%,-10%,–,–
CNC(=O)c1ccc(-c2cnc3ncc(Cc4ccc5ncccc5c4)n3n2)cc1F [capmatinib],–,–,–,–,–,–,–,–,–,–,–,–,–,–,–,–,inhibition at 1 µM [1]: 2.34%; inhibition at 1 µM [2]: 1.32%; inhibition at 1 µM [3]: -0.569%; inhibition at 1 µM [4]: -28%; inhibition at 1 µM [5]: 7.55%; inhibition at 1 µM [6]: -2%; inhibition at 1 µM [7]: -1.4%; inhibition at 1 µM [8]: -4%; inhibition at 1 µM [9]: -2%; inhibition at 1 µM [10]: 16%; inhibition at 1 µM [11]: 0.692%; inhibition at 1 µM [12]: 17%; inhibition at 1 µM [13]: -5%; inhibition at 1 µM ([14]; read-out: %-inhibition AurA): 3.78%; inhibition at 1 µM ([14]; read-out: %-inhibition AurA/TPX2): -6%; inhibition at 1 µM [15]: 11%
FC(F)(F)c1ccc(CNc2ccc(Cc3c[nH]c4ncc(Cl)cc34)cn2)cn1 [pexidartinib],6.34%,16%,37%,-32%,11%,27%,0.521%,18%,-1.06%,75%,3%,–,6.33%,44%,21%,88%,–
CN1CCN(c2ccc(C(=O)Nc3n[nH]c4ccc(Cc5cc(F)cc(F)c5)cc34)c(NC3CCOCC3)c2)CC1 [entrectinib],98%,98%,8%,-14%,63%,68%,0.952%,86%,-1.5%,–,13%,–,0.212%,81%,75%,–,–
COc1cc2ncnc(Nc3ccc(F)c(Cl)c3)c2cc1NC(=O)/C=C/CN1CCCCC1 [dacomitinib],80%,–,19%,-40%,78%,1.56%,0.799%,77%,1.1%,6%,2.54%,103%,3.78%,-1.72%,1%,40%,–
C[C@H]1Oc2cc(cnc2N)-c2c(nn(C)c2C#N)CN(C)C(=O)c2ccc(F)cc21 [lorlatinib],3.52%,28%,-1.47%,-14%,90%,–,-2%,-6%,1.32%,–,-3.21%,9.49%,2.12%,21%,29%,10%,–
C=CC(=O)N1CCC([C@@H]2CCNc3c(C(N)=O)c(-c4ccc(Oc5ccccc5)cc4)nn32)CC1 [zanubrutinib],89%,–,1%,-9%,2.36%,1.42%,-4%,–,-1.66%,6.58%,2.44%,92%,-0.741%,-1.42%,-0.885%,16%,"%-inhibition BLK [8, 23]: 98%"
